In brackets after ≈: the same amount, converted by molar mass.
Assays:
Format in all cases: functional
Details in all cases: read-out: ED50 (the source's name)
[1] = tested on: HCT-8; test: Cytotoxicity against human HCT8 cells
[2] = tested on: KB; test: Cytotoxicity against human KB cells
[3] = tested on: P388; test: Cytotoxicity against mouse P388 cells
[4] = tested on: A549; test: Cytotoxicity against human A549 cells

## COC(=O)[C@]12OC[C@]34[C@H]([C@@H](O)[C@@H]1O)[C@@]1(C)[C@H](O)C(=O)C=C(C)[C@@H]1C[C@H]3OC(=O)[C@H](OC(=O)/C=C(\C)C(C)(C)OC(C)=O)[C@@H]24 [Bruceanol C]
[1]
  EC50: < 0.4 µg/mL
[2]
  EC50: < 0.04 µg/mL
[3]
  EC50: 0.56 µg/mL (≈ 0.923 µM)
[4]
  EC50: 0.48 µg/mL (≈ 0.791 µM)

Reference: ChEMBL document CHEMBL1150753, “Antitumor agents, 93. Bruceanol C, a new cytotoxic quassinoid from Brucea antidysenterica” (1988)
